The values below come from the supplement of paper PMC10307832.

Common to all, as to assay: relative viability (nuclei count vs DMSO), 5 days (fraction); higher = more cells survive
Compound in the assay “Bortezomib + Palbociclib”: CC(C)C[C@H](NC(=O)[C@H](Cc1ccccc1)NC(=O)c1cnccn1)B(O)O [Bortezomib] + CC(=O)c1c(C)c2cnc(Nc3ccc(N4CCNCC4)cn3)nc2n(C2CCCC2)c1=O [Palbociclib] (partner 0.5 µM)
A digest of the protocol: (§1)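 Nuclei were stained with Hoechst during a one-step fixation (final 0.05% Triton X-100, 1% formaldehyde, 1 ug/ml Hoechst) carried out 5 days after dosing, then counted on 4× images. The cells, lung cancer lines in 1536-well plates, had been dosed by pin tool the day after seeding with one drug alone or a fixed anchor-drug dose plus five library-drug doses (not always all listed) in √10 steps. Relative viability is the nuclei count in treated wells divided by that in vehicle wells, and each value is the median of duplicate plates.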

Compound in the assay “Bortezomib + Pictilisib”: CC(C)C[C@H](NC(=O)[C@H](Cc1ccccc1)NC(=O)c1cnccn1)B(O)O [Bortezomib] + CS(=O)(=O)N1CCN(Cc2cc3nc(-c4cccc5[nH]ncc45)nc(N4CCOCC4)c3s2)CC1 [Pictilisib] (partner 1 µM)
The method, boiled down: as §1

Compound in assay [1]: CC1=CC(=NN1)NC2=CC(=NC(=N2)/C=C/C3=CC=CC=C3)N4CCN(CC4)C + C[C@@H](Oc1cc(-c2cnn(C3CCNCC3)c2)cnc1N)c1c(Cl)ccc(F)c1Cl [Crizotinib] (partner 1 µM)
A digest of the protocol:
as §1

Compound in assay [2]: CC1=CC(=NN1)NC2=CC(=NC(=N2)/C=C/C3=CC=CC=C3)N4CCN(CC4)C + N=C(N)NC(=N)NCCc1ccccc1 [Phenformin] (partner 250 µM)
A digest of the protocol:
as §1

Consider NCI-H650, for which the relative viability in the assay with Bortezomib + Palbociclib (first compound 0.0002 µM) came to 0.335; with Bortezomib + Palbociclib (first compound 0.000632 µM) it was 0.27; with Bortezomib + Palbociclib (first compound 0.002 µM), 0.31; in the assay with Bortezomib + Palbociclib (first compound 0.006325 µM), 0.243; in the assay with Bortezomib + Palbociclib (first compound 0.02 µM) it was 0.149; in the assay with Bortezomib + Pictilisib (first compound 0.000632 µM), 0.695. The relative viability with Bortezomib + Pictilisib (first compound 0.002 µM) was found to be 0.551; in the assay with Bortezomib + Pictilisib (first compound 0.006325 µM), 0.328; with Bortezomib + Pictilisib (first compound 0.02 µM) it was 0.205; in assay [1] (first compound 0.08 µM), 0.916; in assay [1] (first compound 0.253 µM), 0.739; in assay [1] (first compound 0.8 µM) it was 0.515. Besides, the relative viability in assay [1] (first compound 2.53 µM) was found to be 0.358; in assay [1] (first compound 8 µM) it was 0.188; in assay [2] (first compound 0.253 µM), 0.521; in assay [2] (first compound 0.8 µM), 0.483; in assay [2] (first compound 2.53 µM) it was 0.371; in assay [2] (first compound 8 µM), 0.181.
